# Results taken from US11413269B2, “Compositions for improved NRF2 activation and methods of their use” (PATHWAYS BIOSCIENCE, LLC, priority 2015, dated 2022).
# Test system: Nrf2
# Assay: ARE-driven luciferase promoter/reporter assay in stably transfected cell lines
# Format: cell-based, human
# Conditions: low concentrations
# Description: Briefly, the stably transfected cells of types HepG2 (human liver), AREc32 (human breast), MCF7 (human breast), A549 (human lung), 293T (human kidney), and A172 (human brain) were seeded at low density in 24-well plates and incubated at 37° C. with 10% CO2. […] After an additional 18 h of incubation, the cells were lysed in their wells with 100 μl of a lysing buffer that contains 3.5 mM sodium pyrophosphate to stabilize light output by luciferase. A 20 μl aliquot of cell lysate was added to a small test tube, placed in a BD Monolight 3010 luminometer for background luminescence, and then 50 μl of 1 mM luciferin was injected into the tube. Relative Light Units integrated for 10 sec were measured for each sample.
structure (smiles),measurement,value
"O=c1cc(-c2ccc(O)c(O)c2)oc2cc(O)cc(O)c12 [Luteolin, luteolin]",synergy with combinations of Rosemary extracts and Ginger extracts to activate Nrf2,synergized
